Results taken from paper PMC11641365, “Evaluation of In Vitro Biological Activity of Flavanone/Chromanone Derivatives: Molecular Analysis of Anticancer Mechanisms in Colorectal Cancer” (International Journal of Molecular Sciences, 2024).

Assays:
Format in all cases: cell-based, human
SW620 [1] = experiment: Alkaline comet assay (DNA damage); details: compound at IC50, 12 h, vs control group
From the text: Single-cell gel electrophoresis, also known as the comet assay, is a rapid and sensitive method for assessing DNA damage at the single-cell level. Cells are lysed and electrophoresed. Both single-strand and double-strand breaks are detected under alkaline conditions. The released DNA is denatured and moves in the agarose gel toward the anode during electrophoresis. The image, obtained after staining with the fluorescent dye 4′,6-diamidino-2-phenylindole (DAPI), resembles a “comet” with a distinct “head” (intact DNA) and “tail” (damaged DNA fragments). The length of the tail depends on the number and size of the broken DNA strands.
Cells (1 × 10^3) were seeded in 35 mm dishes and cultured in the medium for 24 h to attain the logarithmic growth phase. […] Quantitative analysis of the DNA comet image of preparations stained with DAPI solution (2 μg/L) was performed using a camera connected to a fluorescence microscope. The comet DNA analysis was performed under a Nikon Eclipse fluorescence microscope (Nikon, Tokyo, Japan) equipped with a 4910 COHU video camera (Cohu, Inc., San Diego, CA, USA) and a computer with Lucia-Comet v. […] Each time, from each preparation, 100 randomly selected comets were counted. The extent of DNA damage is quantified by measuring the length of the comet tail and the amount of DNA it contains. […]

Caco-2 [2] = experiment: Autophagy induction, monodansylcadaverine (MDC) fluorescence; details: compound at IC50, 24 h, vs control
Procedure: Autophagy induction in cells treated with the tested drugs was determined by measuring Monodansylcadaverine (MDC; Sigma-Aldrich; St. Louis, MO, USA) fluorescence according to a modified method described by Vázquez. […] In the cell, MDC accumulates in lipid-rich cell membranes. It has been shown that MDC can be used as a dye for detecting autophagy, as it accumulates in autophagolysosomes as a result of interaction with membrane lipids.
Cells were seeded in black 96-well fluorometric microplates at a density of 10 × 10^3 cells/mL. […] Following compound incubation, the medium was removed, and the cell monolayers were washed twice with HBSS (140 mM NaCl, 5 mM KCl, 0.8 mM MgCl2, 1.8 mM CaCl2, 1 mM Na2HPO4, 10 mM HEPES, and 1% glucose). A solution of MDC at a final concentration of 50 μM was added to each well and incubated in a CO2 cell culture incubator at 37 °C for 15 min. After incubation with MDC, the probe was removed, and the cells were lysed with 50 μL of lysis buffer (10 mM TRIS-HCl; pH 8 containing 0.1% Triton X-100). After lysis, fluorescence was measured at an excitation wavelength of λex = 390 nm and an emission wavelength of λem = 460 nm using a Perkin-Elmer LS-5B spectrofluorometer (Waltham, MA, USA). In order to normalize the number of cells in individual samples, the amount of DNA was determined by adding 50 μL of EB (final concentration 0.2 mM) to each well after measuring the MCB fluorescence and measuring the EB fluorescence at an excitation wavelength of λex = 530 nm and an emission wavelength of λem = 590 nm. The results were calculated as the ratio of MDC fluorescence to EB fluorescence.

Caco-2 [3] = experiment: Hydrogen peroxide level, H2DCFDA probe; details: compound at IC50, 24 h, vs control
Procedure: (§1) Cellular H2O2 levels were assessed using 2′,7′-dichlorodihydrofluorescein diacetate (H2DCFDA, Sigma-Aldrich, St. Louis, MO, USA), a well-established fluorogenic probe for intracellular hydrogen peroxide detection. H2DCFDA readily diffuses across the cell membrane and is subsequently hydrolyzed by intracellular esterases to non-fluorescent H2DCF. Oxidation of H2DCF by ROS generates highly fluorescent 2′,7′-dichlorofluorescein (DCF), which accumulates in the cytosol. […] The fluorescence intensity of DCF is directly proportional to the concentration of ROS within the cell.
(§2) Cells were seeded in black 96-well fluorometric microplates at a density of 10 × 10^3 cells/mL. […] Following compound incubation, the medium was removed, and the cell monolayers were washed twice with HBSS (140 mM NaCl, 5 mM KCl, 0.8 mM MgCl2, 1.8 mM CaCl2, 1 mM Na2HPO4, 10 mM HEPES, and 1% glucose). A volume of 50 µL of H2DCFDA solution in HBSS (final concentration 5 μM) was added to each well, and the cells were incubated for 30 min in the dark at 37 °C. After incubation with the H2DCFDA, fluorescence measurements were conducted using a Perkin-Elmer LS-5B spectrofluorometer (MA, USA) at the following excitation and fluorescence emission wavelengths: λex = 498 nm/λem = 522 nm. The fluorescence intensity of control cells was arbitrarily assigned a value of 100%. The results were expressed as percentages of control, calculated by comparing the fluorescence intensity ratio of the test samples to controls (100%). The fluorescence of samples was denoted as Δf in relation to the control.

SW620 [4] = experiment: Hydrogen peroxide level, H2DCFDA probe; details: compound at IC50, 24 h, vs control
Procedure: as §1, §2

HCT 116 = experiment: Hydrogen peroxide level, H2DCFDA probe; details: compound at IC50, 24 h
Procedure: as §1, §2

COc1cccc(/C=C2/C(=O)c3ccccc3OC2c2ccccc2)c1 (centres unmarked) [Compound 3]
Increase in DNA content in the comet tail (SW620 [1]): approximately 40%

O=C1/C(=C/c2ccccc2)COc2ccccc21 [Compound 1]
Increase in MDC fluorescence intensity (autophagy) (Caco-2 [2]): 25%
Increase in H2O2 levels (Caco-2 [3]): approximately 25%

O=C1/C(=C/c2ccccc2)C(c2ccccc2)Oc2ccccc21 (centres unmarked) [Compound 5]
Increase in H2O2 levels (SW620 [4]): 15%
Effect on H2O2 levels (HCT 116): did not affect H2O2 levels
